The text below walks through data of US20120029054A1, “RNA Interference Mediated Inhibition of GATA Binding Protein 3 (GATA3) Gene Expression Using Short Intefering Nucleic Acid (siNA)” (Merck Sharp & Dohme Corp., priority 2009, published 2012).

[invAb] = inverted abasic unit; m = 2'-O-methyl; r = 2'-OH (RNA); f = 2'-fluoro

Data set [1] relates to GATA3 mRNA. The experiment in a line: GATA3 mRNA knock-down (Taqman qRT-PCR) after RNAiMax transfection of human MCF7 cells; screen and IC50 dose response. The class given is cell-based. Conditions: 10 nM siNA, MCF7 cells, 24 hrs, average of 3 experiments. The protocol: MCF7 (human; ATCC cat# HTB-22): Cells were cultured at 37° C. in the presence of 5% CO2 and grown in Eagle's Minimum Essential medium with supplemented with fetal bovine serum at a final concentration of 10% and 100 μg/mL of streptomycin and 100 U/mL penicillin.
(§1) Cells were plated in all wells of a tissue-culture treated, 96-well plate at a final count of 5000 cells/well in 100 μL of the appropriate culture media. The cells were cultured for 24 hours after plating at 37° C. in the presence of 5% CO2.
(§2) After 24 hours, complexes containing siNA and RNAiMax were created as follows: A solution of RNAiMax diluted 33-fold in OPTI-MEM was prepared. In parallel, solutions of the siNAs for testing were prepared to a final concentration of 120 nM in OPTI-MEM. After incubation of RNAiMax/OPTI-MEM solution at room temperature for 5 min, an equal volume of the siNA solution and the RNAiMax solution were added together for each of the siNAs.
(§3) This solution was incubated at room temperature for 20 minutes. After incubation, 20 uL of the solution was added to each of the relevant wells. The final concentration of siNA in each well was 10 nM and the final volume of RNAiMax in each well was 0.3 ul.
(§4) The time of incubation with the RNAiMax-siNA complexes was 24 hours and there was no change in media between transfection and harvesting, unless otherwise indicated.
(§5) RNA was extracted from a 96-well plate using the TaqMan® Gene Expression Cells-to-CT™ Kit (Cat#4399002) with a modified protocol. Briefly, a 60 uL (1 plate) or 110 uL (2 plates) of the Lysis Solution with DNase I was dispensed into each well of the Lysis Buffer Plate (twin.tec full skirt plate). The lysis buffer and stop plates were stored at 4° C. until the cells were washed.
(§6) The plate was spun at 1100 rpm for 5 minutes. The culture medium was aspirated and discarded from the wells of the culture plate. The lysis was performed automatically using a BioMek FX instrument and method. After the Biomek method was completed, the lysis plate was incubated for 2 min. at room temperature. The lysis plate can be stored for 2 hours at 4° C., or at −20° C. or −80° C. for two months.
(§7) Each well of the reverse transcription plate required 10 uL of 2× reverse transcriptase Buffer, 1 uL of 20× reverse transcription enzyme and 2 uL of nuclease-free water. The reverse transcription master mix was prepared by mixing 2× reverse transcription buffer, 20× reverse transcription enzyme mix, and nuclease-free water. 13 uL of the reverse transcription master mix was dispensed into each well of the reverse transcription plate (semi-skirted). A separate reverse transcription plate was prepared for each cell plate. The plate was loaded onto a Biomek NX or Biomek FX Dual-96 and the Biomek method was run. The program is programmed to automatically added 7 uL of lysate from the cell lysis procedure described above into each well of the reverse transcription plate. The plate is sealed and spun on a centrifuge (1000 rpm for 30 seconds) to settle the contents to the bottom of the reverse transcription plate. The plate is placed in a thermocycler at 37° C. for 60 min, 95° C. for 5 min, and 4° C. until the plate is removed from the thermocycler. Upon removal, if not used immediately, the plate was frozen at −20° C.
(§8) A series of probes and primers were used to detect the various mRNA transcripts of the genes of β-Actin (human cell line only), and of GATA3 and GAPDH in mouse and human cell lines. All Taqman probes and primers for the experiments here-in described were supplied as pre-validated sets by Applied Biosystems, Inc. (see Table 2).
(§9) The assays were performed on an ABI 7900 instrument, according to the manufacturer's instructions. A TaqMan Gene Expression Master Mix (provided in the Cells-to-CT™, Applied Biosystems, Cat #4399002) was used. The PCR reactions were carried out at 50° C. for 2 min, 95° C. for 20 min followed by 40 cycles at 95° C. for 15 secs and 60° C. for 1 min. […]

For data set [2], the system named is GATA3 mRNA. The experiment in a line: GATA3 mRNA knock-down (Taqman qRT-PCR) after RNAiMax transfection of mouse RAG cells. Type of data set: cell-based. Conditions: 10 nM siNA, 24 hrs, average of 2 experiments. As for the experimental part: RAG (murine; ATCC cat# CCL-142): Cells were cultured at 37° C. in the presence of 5% CO2 and grown in Eagle's Minimum Essential medium with supplemented with 10% of fetal bovine serum, 100 μg/mL of streptomycin, and 100 U/mL penicillin.
as §1, §2, §3, §4, §5, §6, §7, §8, §9

Regarding “30245-DC: GATA3 siNA duplex, site 1829: sense B GccAuccAGccuGuccuuu TTB (SEQ 43), antisense AAAGGAcAGGcuGGAuGGcUU (SEQ 44) (sense GCCAUCCAGCCUGUCCUUUTT; antisense AAAGGACAGGCUGGAUGGCUU; chemistry not fully specified)”, the “% KD Human” value in data set [1] is on record as 24 ± 2%. Further, the “% KD Mouse” value in data set [2] stood at 20 ± 7%.

On to “30246-DC: GATA3 siNA duplex, site 1883: sense B GGGuuAGAGcccuGcucGA TTB (SEQ 45), antisense UCGAGcAGGGcucuAAcccUU (SEQ 46) (sense GGGUUAGAGCCCUGCUCGATT; antisense UCGAGCAGGGCUCUAACCCUU; chemistry not fully specified)”, for which the “% KD Human” value in data set [1] is on record as −6 ± 19%. The “% KD Mouse” value in data set [2] is on record as −1 ± 2%.

Consider “30247-DC: GATA3 siNA duplex, site 763: sense B GGGccAcGGuGcAGAGGuA TTB (SEQ 47), antisense UACcucuGcAccGuGGcccUU (SEQ 48) (sense GGGCCACGGUGCAGAGGUATT; antisense UACCUCUGCACCGUGGCCCUU; chemistry not fully specified)”, for which, in data set [1], the “% KD Human” value is recorded as −7 ± 17%. For the same substance, the “% KD Mouse” value in data set [2] is reported as −25 ± 14%.

For “30248-DC: GATA3 siNA duplex, site 643: sense B cGGGccucAGccAcuccuA TTB (SEQ 49), antisense UAGGAGuGGcuGAGGcccGUU (SEQ 50) (sense CGGGCCUCAGCCACUCCUATT; antisense UAGGAGUGGCUGAGGCCCGUU; chemistry not fully specified)”, the “% KD Human” value in data set [1] came out at 18 ± 4%. Moreover, in data set [2], the “% KD Mouse” value turned out to be 1 ± 5%.

On to “30249-DC: GATA3 siNA duplex, site 673: sense B cGcAGuAcccGcuGccGGA TTB (SEQ 51), antisense UCCGGcAGcGGGuAcuGcGUU (SEQ 52) (sense CGCAGUACCCGCUGCCGGATT; antisense UCCGGCAGCGGGUACUGCGUU; sense: DNA at AGT, 2'-fluoro at CU, [invAb] at 5' end, 3' end, backbone not given here; antisense: sugars from the 5' end rrrmmfmmfmmmfmffmfmmm, backbone not given here)”, for which the “% KD Human” value in data set [1] is on record as 1 ± 19%. The “% KD Mouse” value in data set [2] was −12 ± 2%.

As for “30250-DC: GATA3 siNA duplex, site 727: sense B GcAAccAcGucccGcccuA TTB (SEQ 53), antisense UAGGGcGGGAcGuGGuuGcUU (SEQ 54) (sense GCAACCACGUCCCGCCCUATT; antisense UAGGGCGGGACGUGGUUGCUU; chemistry not fully specified)”, the “% KD Human” value in data set [1] is on record as 6 ± 9%. Moreover, the “% KD Mouse” value in data set [2] was −9 ± 8%.

Regarding “30251-DC: GATA3 siNA duplex, site 735: sense B GucccGcccuAcuAcGGAA TTB (SEQ 55), antisense UUCcGuAGuAGGGcGGGAcUU (SEQ 56) (sense GUCCCGCCCUACUACGGAATT; antisense UUCCGUAGUAGGGCGGGACUU; sense: DNA at AGT, 2'-fluoro at CU, [invAb] at 5' end, 3' end, backbone not given here; antisense: sugars from the 5' end rrrfmfmmfmmmmfmmmmfmm, backbone not given here)”, the “% KD Human” value in data set [1] is reported as −127 ± 32%. In addition, in data set [2], the “% KD Mouse” value is −30 ± 18%.

As for “30252-DC: GATA3 siNA duplex, site 1084: sense B cccGGcAGGAcGAGAAAGA TTB (SEQ 57), antisense UCUuucucGuccuGccGGGUU (SEQ 58) (sense CCCGGCAGGACGAGAAAGATT; antisense UCUUUCUCGUCCUGCCGGGUU; sense: DNA at AGT, 2'-fluoro at C, [invAb] at 5' end, 3' end, backbone not given here; antisense: sugars from the 5' end rrrfffffmffffmffmmmmm, backbone not given here)”, the “% KD Human” value in data set [1] is listed as −3 ± 2%. Further, the “% KD Mouse” value in data set [2] is 0 ± 4%.

As to “30253-DC: GATA3 siNA duplex, site 644: sense B GGGccucAGccAcuccuAc TTB (SEQ 59), antisense GUAGGAGuGGcuGAGGcccUU (SEQ 60) (sense GGGCCUCAGCCACUCCUACTT; antisense GUAGGAGUGGCUGAGGCCCUU; chemistry not fully specified)”, in data set [1], the “% KD Human” value is −1 ± 11%. Moreover, in data set [2], the “% KD Mouse” value is −6 ± 1%.

With “30254-DC: GATA3 siNA duplex, site 619: sense B GGcAGcAcccGGAcAcGcA TTB (SEQ 61), antisense UGCGuGuccGGGuGcuGccUU (SEQ 62) (sense GGCAGCACCCGGACACGCATT; antisense UGCGUGUCCGGGUGCUGCCUU; chemistry not fully specified)”, the “% KD Human” value in data set [1] is listed as −27 ± 15%. In data set [2], the “% KD Mouse” value stood at 6 ± 5%.

For the substance “30255-DC: GATA3 siNA duplex, site 1085: sense B ccGGcAGGAcGAGAAAGAG TTB (SEQ 63), antisense CUCuuucucGuccuGccGGUU (SEQ 64) (sense CCGGCAGGACGAGAAAGAGTT; antisense CUCUUUCUCGUCCUGCCGGUU; sense: DNA at AGT, 2'-fluoro at C, [invAb] at 5' end, 3' end, backbone not given here; antisense: sugars from the 5' end rrrffffffmffffmffmmmm, backbone not given here)”, the “% KD Human” value in data set [1] came to 26 ± 11%. Further, the “% KD Mouse” value in data set [2] is on record as 40 ± 3%.

Turning to “30256-DC: GATA3 siNA duplex, site 719: sense B cGGucAAGGcAAccAcGuc TTB (SEQ 65), antisense GACGuGGuuGccuuGAccGUU (SEQ 66) (sense CGGUCAAGGCAACCACGUCTT; antisense GACGUGGUUGCCUUGACCGUU; chemistry not fully specified)”, the “% KD Human” value in data set [1] is −19 ± 5%. Further, the “% KD Mouse” value in data set [2] was determined as 1 ± 6%.

On to “30257-DC: GATA3 siNA duplex, site 1830: sense B ccAuccAGccuGuccuuuG TTB (SEQ 67), antisense CAAAGGAcAGGcuGGAuGGUU (SEQ 68) (sense CCAUCCAGCCUGUCCUUUGTT; antisense CAAAGGACAGGCUGGAUGGUU; chemistry not fully specified)”, for which the “% KD Human” value in data set [1] is −3 ± 3%. For the same substance, the “% KD Mouse” value in data set [2] is recorded as −4 ± 5%.

“30258-DC: GATA3 siNA duplex, site 990: sense B cAcGccAGcccGcAccucu TTB (SEQ 69), antisense AGAGGuGcGGGcuGGcGuGUU (SEQ 70) (sense CACGCCAGCCCGCACCUCUTT; antisense AGAGGUGCGGGCUGGCGUGUU; chemistry not fully specified)”: the “% KD Human” value in data set [1] amounted to 0 ± 4%. In addition, the “% KD Mouse” value in data set [2] is on record as −12 ± 4%.

Regarding “30259-DC: GATA3 siNA duplex, site 713: sense B cAucGAcGGucAAGGcAAc TTB (SEQ 71), antisense GUUGccuuGAccGucGAuGUU (SEQ 72) (sense CAUCGACGGUCAAGGCAACTT; antisense GUUGCCUUGACCGUCGAUGUU; chemistry not fully specified)”, in data set [1], the “% KD Human” value amounted to 36 ± 2%. Moreover, in data set [2], the “% KD Mouse” value is 60 ± 1%.
